Experimental findings from ChEMBL document CHEMBL3102825, “Exploration of a series of 5-arylidene-2-thioxoimidazolidin-4-ones as inhibitors of the cytolytic protein perforin” (J Med Chem, 2013) are described below.

The assay addresses Perforin-1 (Mus musculus) (UniProt P10820). Briefly: Reversible binding affinity to recombinant mouse perforin by SPR analysis. (In general: In SPR one partner is held on a chip, and binding of the other changes the refractive index at the surface.)

The source made the active and inactive calls. The rule behind the calls is not given here.

Chain of Perforin-1 (Mus musculus) (P10820 whole entry, looked up): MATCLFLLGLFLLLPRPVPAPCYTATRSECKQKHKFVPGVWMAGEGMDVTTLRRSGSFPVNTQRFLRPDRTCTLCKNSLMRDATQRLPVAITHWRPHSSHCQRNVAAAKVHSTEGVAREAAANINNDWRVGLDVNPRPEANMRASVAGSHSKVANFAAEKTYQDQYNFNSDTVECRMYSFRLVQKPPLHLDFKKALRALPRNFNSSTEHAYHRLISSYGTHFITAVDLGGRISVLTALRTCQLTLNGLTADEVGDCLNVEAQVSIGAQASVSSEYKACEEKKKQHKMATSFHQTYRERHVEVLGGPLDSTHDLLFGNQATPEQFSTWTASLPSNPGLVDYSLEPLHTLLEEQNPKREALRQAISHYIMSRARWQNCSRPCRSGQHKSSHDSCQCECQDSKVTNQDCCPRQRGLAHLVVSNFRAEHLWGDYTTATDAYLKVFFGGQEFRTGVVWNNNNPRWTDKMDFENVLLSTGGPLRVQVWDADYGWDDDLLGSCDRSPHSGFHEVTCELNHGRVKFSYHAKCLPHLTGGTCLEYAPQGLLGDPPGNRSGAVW

With `O=C1NC(=S)[N-]/C1=C/c1ccc(-c2ccc3c(c2)CCNC3=O)s1.[Na+]`, the outcome was Active.

With `CC1c2cc(-c3ccc(/C=C4/[N-]C(=S)NC4=O)s3)ccc2C(=O)N1C.[Na+]` (configuration not stated), the outcome was Active.
